From publication PMC11062894, “Protein-based bandpass filters for controlling cellular signaling with chemical inputs” (Nature Chemical Biology, 2023)

Test system: GEMS receptors with CBPA11 (BclXL–LD3 and BclXLhigh variants), STAT3-driven SEAP in HEK293T cells
Assay: GEMS SEAP reporter assay, CBPA11 (BclXLhigh, LD3-v and BclXL-v variants) with A-1155463
Assay type: cell-based
Parameters: key to Raw data (SEAP) / SEAP, replicate values / Raw data of Figure 5b / Raw data Figure 5e / Raw data of Independent repeat of CBPA11-v1 vs CBPA11-v1-LD3v3 / Raw data of Independent repeat of CBPA11-v3 vs CBPA11-v3-LD3v3 / Raw data of Figure 5b, CBPA11-v1-LD3v3 (SEAP reporter raw value, single replicate) / Raw data of Figure 5b, CBPA11-v1 (SEAP reporter raw value, single replicate): SEAP activity in U/L in culture supernatant
Excerpt: To rationally design a CBP responding to a chemical input, we used BclXL as the druglow receptor, LD3 as the designed binder and a designed BclXL variant as the drughigh receptor (referred to as BclXLhigh) to construct a CBP responsive to BclXL inhibitors (Fig. 4a). To design BclXLhigh, we used a multistate design computational protocol described elsewhere[26] […] Thus, BclXLhigh-v(1–3) were chosen as the functional drughigh receptors, resulting in three A-1155463-controlled CBPs (referred to as CBPA11-v(1–3)) (Fig. 4c–e).
HEK293T cells were seeded in a 96-well plate 24 h before transfection. The transfection mix in each well consisted of 3 ng of constitutive human CMV promoter driven mammalian STAT3 expression vector (PhCMV-STAT3-pA), 30 ng of STAT3-induced reporter expression (OStat3-PhCMVmin-SEAP-pA) and 50 ng of expression vectors for each GEMS receptor chain (PSV40-IgK-(drughigh receptor)-EpoRm-IL-6RBm-pA and PSV40-IgK-(druglow receptor-GGGGSX3-LD3)-EpoRm-IL-6RBm-pA). For the specific drughigh receptor and druglow receptor used in the different cellular assays, they are indicated as wild type or with mutations. Then, plasmid DNA was mixed with 50 μl opti-MEM (Thermo Fisher) and 600 ng of polyethyleneimine (Polysciences, catalog no. 24765-1). For drug treatment experiments, drugs were added 12 h post-transfection and incubated with cells for 24 h before the SEAP reporter detection assay.
SEAP activity (U l^−1) in cell culture supernatants was quantified by kinetic measurements at 405 nm (1 minute per measurement for 30 cycles) of absorbance increase due to phosphatase-mediated hydrolysis of para-nitrophenyl phosphate (pNPP).
Binding affinities of SPR drug competition assays were calculated using three-parameter nonlinear regression in GraphPad Prism (v.8.3.0). Representative data of cell assays are presented as individual values and mean values (bars). n = 3 refers to biological replicates. All IC50 or EC50 values of cell assays reported were calculated using four-parameter nonlinear regression ± s.d. Bandpass features of cutoff concentrations and Bandwidth90% were estimated based on the curve fitted using bell-shaped curve nonlinear regression in GraphPad Prism (v.8.3.0). […]
Supplementary Figure 4: Design, screening and validation of BclXLhigh variants. a) Screening of BclXLhigh variants in the GEMS platform. […]
Dissociation constant measurement of BclXLhigh-v(1-3) and LD3. Equilibrium curves are fitted using […]
BclXLhigh-v1 (purple), BclXLhigh-v2 (blue), […]
a) Bcl2high-based bandpass filter designs were developed and to respond to different concentrations of […]
corresponding inhibitor. c) Screening of Bcl2high-based bandpass filter variants in the GEMS platform.
The designed binder LD3 was fused to the druglow-receptor (PSV40-IgK-Bcl2-LD3-EpoRm-IL-6RBm-pA) in one EpoR chain and Bcl2high variants with the insensitive Bcl2 (iBcl2) as control in the other EpoR chain (PSV40-IgK-Bcl2high-EpoRm-IL-6RBm-pA). HEK293T cells were transfected with indicated […]
the mean of six biological replicates ± s.d., overlaid with a scatter dot plot of the original data points.
(1 picture or pasted object on this page, not shown here)
Supplementary Figure 6: Binding affinities and drug resistances of Bcl2high-v(2,4,5) assessed by […]
a) Measurement of dissociation constants for Bcl2high-v(2,4,5) and LD3 interactions. Equilibrium curves […]
Bcl2high-v(2,4,5) measured by SPR. 5 μM of Bcl2 or indicated variants were mixed with 10 μM of […]
Bcl2high-v2 (red), Bcl2high-v4
Supplementary Figure 7: Screening of LD3 variants in CBPA11-v(1-3) and raw data of CBPA11-v(1,3) with LD3-v3 variant. a-c) Screening of LD3 and LD3-v(1-3) variants in complex with BclXL for more sensitive CBPA11-v1 (a), CBPA11-v2 (b), CBPA11-v3 (c) in the GEMS platform. The LD3 variants replaced the role of LD3 (PSV40-IgK-BclXL-LD3-v(1-3)-EpoRm-IL-6RBm-pA) in one EpoR chain and BclXLhigh-v(1-3) in the other EpoR chain (PSV40-IgK-BclXLhigh-V(1-3)-EpoRm-IL-6RBm-pA). HEK293T cells were transfected with […]

[1] = SuppFigure 9a, BclXL, A-1155463 3.16 nM
[2] = SuppFigure 9a, BclXL, A-1155463 100 nM
[3] = SuppFigure 9a, BclXL, A-1155463 316 nM
[4] = SuppFigure 9a, BclXL, A-1155463 1000 nM
[5] = SuppFigure 9a, BclXL, A-1155463 3160 nM
[6] = SuppFigure 9a, BclXL, A-1155463 10000 nM
[7] = SuppFigure 9b, BclXL-v1, A-1155463 1 nM
[8] = SuppFigure 9b, BclXL-v1, A-1155463 3.16 nM
[9] = SuppFigure 9b, BclXL-v1, A-1155463 10 nM
[10] = SuppFigure 9b, BclXL-v1, A-1155463 31.6 nM
[11] = SuppFigure 9b, BclXL-v1, A-1155463 100 nM
[12] = SuppFigure 9b, BclXL-v1, A-1155463 316 nM
[13] = SuppFigure 9b, BclXL-v1, A-1155463 1000 nM
[14] = SuppFigure 9b, BclXL-v1, A-1155463 3160 nM
[15] = SuppFigure 9b, BclXL-v1, A-1155463 10000 nM
[16] = SuppFigure 9b, BclXL-v2, A-1155463 1 nM
[17] = SuppFigure 9b, BclXL-v2, A-1155463 3.16 nM
[18] = SuppFigure 9b, BclXL-v2, A-1155463 10 nM
[19] = SuppFigure 9b, BclXL-v2, A-1155463 31.6 nM
[20] = SuppFigure 9b, BclXL-v2, A-1155463 100 nM
[21] = SuppFigure 9b, BclXL-v2, A-1155463 316 nM
[22] = SuppFigure 9b, BclXL-v2, A-1155463 1000 nM
[23] = SuppFigure 9b, BclXL-v2, A-1155463 3160 nM
[24] = SuppFigure 9b, BclXL-v2, A-1155463 10000 nM
[25] = SuppFigure 9b, BclXL-v3, A-1155463 1 nM
[26] = SuppFigure 9b, BclXL-v3, A-1155463 3.16 nM
[27] = SuppFigure 9b, BclXL-v3, A-1155463 10 nM
[28] = SuppFigure 9b, BclXL-v3, A-1155463 31.6 nM
[29] = SuppFigure 9b, BclXL-v3, A-1155463 100 nM
[30] = SuppFigure 9b, BclXL-v3, A-1155463 316 nM
[31] = SuppFigure 9b, BclXL-v3, A-1155463 1000 nM
[32] = SuppFigure 9b, BclXL-v3, A-1155463 3160 nM
[33] = SuppFigure 9b, BclXL-v3, A-1155463 10000 nM
[34] = SuppFigure 9b, BclXL, A-1155463 1 nM
[35] = SuppFigure 9b, BclXL, A-1155463 3.16 nM
[36] = SuppFigure 9b, BclXL, A-1155463 10 nM
[37] = SuppFigure 9b, BclXL, A-1155463 31.6 nM
[38] = SuppFigure 9b, BclXL, A-1155463 100 nM
[39] = SuppFigure 9b, BclXL, A-1155463 316 nM
[40] = SuppFigure 9b, BclXL, A-1155463 1000 nM
[41] = SuppFigure 9b, BclXL, A-1155463 3160 nM
[42] = SuppFigure 9b, BclXL, A-1155463 10000 nM
[43] = SuppFigure 9c, LD3, A-1155463 1 nM
[44] = SuppFigure 9c, LD3, A-1155463 3.16 nM
[45] = SuppFigure 9c, LD3, A-1155463 10 nM
[46] = SuppFigure 9c, LD3, A-1155463 31.6 nM
[47] = SuppFigure 9c, LD3, A-1155463 100 nM

CN(C)CC#Cc1ccc(OCCCc2sc(N3CCc4cccc(C(=O)Nc5nc6ccccc6s5)c4C3)nc2C(=O)O)c(F)c1 [A-1155463]
Normalized data (SEAP) [1]: 6.043
Raw data (SEAP) [1]: 25.9846
Normalized data (SEAP) [2]: 100
Raw data (SEAP) [2]: 429.99
Normalized data (SEAP) [3]: 92.0518
Raw data (SEAP) [3]: 395.813
Normalized data (SEAP) [4]: 64.9807
Raw data (SEAP) [4]: 279.41
Normalized data (SEAP) [5]: 59.757
Raw data (SEAP) [5]: 256.949
Normalized data (SEAP) [6]: 20.582
Raw data (SEAP) [6]: 88.5006
Normalized data (SEAP) [7]: 29.2402
Raw data (SEAP) [7]: 3.306
Normalized data (SEAP) [8]: 25.4197
Raw data (SEAP) [8]: 2.874
Normalized data (SEAP) [9]: 91.2564
Raw data (SEAP) [9]: 10.3177
Normalized data (SEAP) [10]: 99.5447
Raw data (SEAP) [10]: 11.2548
Normalized data (SEAP) [11]: 88.866
Raw data (SEAP) [11]: 10.0475
Normalized data (SEAP) [12]: 80.3713
Raw data (SEAP) [12]: 9.087
Normalized data (SEAP) [13]: 71.8768
Raw data (SEAP) [13]: 8.127
Normalized data (SEAP) [14]: 100
Raw data (SEAP) [14]: 11.3063
Normalized data (SEAP) [15]: 93.1986
Raw data (SEAP) [15]: 10.5373
Normalized data (SEAP) [16]: 14.254
Raw data (SEAP) [16]: 6.039
Normalized data (SEAP) [17]: 18.0852
Raw data (SEAP) [17]: 7.662
Normalized data (SEAP) [18]: 44.9661
Raw data (SEAP) [18]: 19.0516
Normalized data (SEAP) [19]: 70.6852
Raw data (SEAP) [19]: 29.9485
Normalized data (SEAP) [20]: 100
Raw data (SEAP) [20]: 42.3689
Normalized data (SEAP) [21]: 44.6168
Raw data (SEAP) [21]: 18.9036
Normalized data (SEAP) [22]: 22.2068
Raw data (SEAP) [22]: 9.409
Normalized data (SEAP) [23]: 14.8235
Raw data (SEAP) [23]: 6.281
Normalized data (SEAP) [24]: 14.5729
Raw data (SEAP) [24]: 6.174
Normalized data (SEAP) [25]: 52.1022
Raw data (SEAP) [25]: 4.346
Normalized data (SEAP) [26]: 54.3684
Raw data (SEAP) [26]: 4.535
Normalized data (SEAP) [27]: 49.6336
Raw data (SEAP) [27]: 4.14
Normalized data (SEAP) [28]: 58.6885
Raw data (SEAP) [28]: 4.895
Normalized data (SEAP) [29]: 75.7473
Raw data (SEAP) [29]: 6.318
Normalized data (SEAP) [30]: 55.3616
Raw data (SEAP) [30]: 4.618
Normalized data (SEAP) [31]: 57.9749
Raw data (SEAP) [31]: 4.836
Normalized data (SEAP) [32]: 83.7705
Raw data (SEAP) [32]: 6.988
Normalized data (SEAP) [33]: 90.2218
Raw data (SEAP) [33]: 7.526
Normalized data (SEAP) [34]: 18.8536
Raw data (SEAP) [34]: 4.217
Normalized data (SEAP) [35]: 21.8131
Raw data (SEAP) [35]: 4.879
Normalized data (SEAP) [36]: 73.5481
Raw data (SEAP) [36]: 16.4519
Normalized data (SEAP) [37]: 74.0156
Raw data (SEAP) [37]: 16.5565
Normalized data (SEAP) [38]: 100
Raw data (SEAP) [38]: 22.3689
Normalized data (SEAP) [39]: 57.787
Raw data (SEAP) [39]: 12.9263
Normalized data (SEAP) [40]: 39.6131
Raw data (SEAP) [40]: 8.861
Normalized data (SEAP) [41]: 30.6519
Raw data (SEAP) [41]: 6.8565
Normalized data (SEAP) [42]: 26.3116
Raw data (SEAP) [42]: 5.886
Normalized data (SEAP) [43]: 9.095
Raw data (SEAP) [43]: 7.283
Normalized data (SEAP) [44]: 10.2911
Raw data (SEAP) [44]: 8.241
Normalized data (SEAP) [45]: 55.7186
Raw data (SEAP) [45]: 44.6179
Normalized data (SEAP) [46]: 64.2529
Raw data (SEAP) [46]: 51.4519
Normalized data (SEAP) [47]: 100
Raw data (SEAP) [47]: 80.0772
Normalized data (SEAP) (SuppFigure 9c, LD3, A-1155463 316 nM): 76.4435
